Reference: patent US20240391862A1, “(1,4,5-TRISUBSTITUTED-1H-PYRAZOL-3-YL)OXY-2-ALKOXY ALKYL ACIDS AND THEIR DERIVATIVES, THEIR SALTS AND THEIR USE AS HERBICIDAL AGENTS” (Bayer AKtiengesellschaft, priority 2021, published 2024)

Tests used:
AVEFA = experiment: Post-emergence herbicidal effect, greenhouse pot test; format: in vivo, Avena fatua; conditions: visual rating about 3 weeks after treatment
In short: (§1)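 Sandy loam pots, greenhouse. One-leaf stage (2–3 wk after sowing) foliar spray; WP/EC in water + 0.5% additive, 600 l/ha; 20–320 g/ha. Visual score ~3 wk, 0–100% vs untreated.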

PHBPU = experiment: as above; format: in vivo, Ipomoea purpurea; conditions: 320 g/ha; for pest or weed control at 320 g/ha: Ipomoea purpurea, 504 h, read-out: Post-emergence effect against PHBPU in %
In short: as §1

LOLRI = experiment: as above; format: in vivo, Lolium rigidum; conditions: for pest or weed control at 320 g/ha: Lolium rigidum, 504 h, read-out: Post-emergence effect against LOLRI in %
In short: as §1

VIOTR = experiment: as above; format: in vivo, Viola tricolor
In short: as §1

VERPE = experiment: as above; format: in vivo, Veronica persica; conditions: 320 g/ha; for pest or weed control at 320 g/ha: Veronica persica, 504 h, read-out: Post-emergence effect against VERPE in %
In short: as §1

DIGSA = experiment: as above; format: in vivo, Digitaria sanguinalis; conditions: 320 g/ha, visual rating about 3 weeks after treatment; for pest or weed control at 320 g/ha: Digitaria sanguinalis, 504 h, read-out: Post-emergence effect against DIGSA
In short: as §1

ZEAMX = experiment: Post-emergence herbicidal effect and crop plant compatibility, greenhouse pot test; format: in vivo, Zea mays; conditions: one-leaf stage, rated visually after about 3 weeks vs untreated controls; for plant injury at 20 g/ha: read-out: Post-emergence effect at 20 g/ha against ZEAMX in %; for plant injury at 80 g/ha: read-out: Post-emergence effect at 80 g/ha against ZEAMX in %
In short: (§2)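 Greenhouse pot plants in sandy loam receive a one-leaf-stage spray at 20 to 320 g/ha. Activity is assessed visually around 3 weeks afterwards on a 0–100% scale, where 100% means the plants have died.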

TRZAS = experiment: as above; format: in vivo, Triticum aestivum; conditions: 20 g/ha, one-leaf stage, rated visually after about 3 weeks vs untreated controls; for percent crop injury (phytotoxicity) to wheat, post-emergence at 20 g/ha: Triticum aestivum, 504 h, read-out: Post-emergence effect at 20 g/ha against TRZAS in %
In short: as §2

SETVI = experiment: Post-emergence herbicidal effect, greenhouse pot test; format: in vivo, Setaria viridis; conditions: 320 g/ha; for pest or weed control at 320 g/ha: Setaria viridis, 504 h, read-out: Post-emergence effect against SETVI in %
In short: as §1

ABUTH = experiment: as above; format: in vivo, Abutilon theophrasti; conditions: 320 g/ha, visual rating about 3 weeks after treatment; for pest or weed control at 320 g/ha: Abutilon theophrasti, 504 h, read-out: Post-emergence effect against ABUTH
In short: as §1

POLCO = experiment: as above; format: in vivo, Fallopia convolvulus; conditions: for pest or weed control at 320 g/ha: Fallopia convolvulus, 504 h, read-out: Post-emergence effect against POLCO in %
In short: as §1

ALOMY = experiment: as above; format: in vivo, Alopecurus myosuroides; conditions: visual rating about 3 weeks after treatment; for pest or weed control at 320 g/ha: Alopecurus myosuroides, 504 h, read-out: Post-emergence effect against ALOMY
In short: as §1

AMARE = experiment: as above; format: in vivo, Amaranthus retroflexus; conditions: visual rating about 3 weeks after treatment
In short: as §1

KCHSC = experiment: as above; format: in vivo
In short: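 Visual rating of activity against untreated plants (100% = plants died, 0% = no effect), done about 3 weeks after treatment. Compounds applied at 20–320 g/ha as aqueous spray (600 l/ha, 0.5% additive) from WP or EC formulations onto one-leaf-stage plants grown in sandy loam under greenhouse conditions.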

ECHCG = experiment: as above; format: in vivo, Echinochloa crus-galli
In short: as §1

[1] = Viola tricolor, 504 h, 320 g/ha, read-out: Post-emergence effect against VIOTR in %
[2] = Amaranthus retroflexus, 504 h, 320 g/ha, read-out: Post-emergence effect against AMARE
[3] = 504 h, 320 g/ha, read-out: Post-emergence effect against KCHSC in %
[4] = Echinochloa crus-galli, 504 h, 320 g/ha, read-out: Post-emergence effect against ECHCG in %

COC(=O)CCOC(=O)C(OC)Oc1nn(-c2ncccc2F)c(-c2ccc(F)nc2)c1C1CC1 (single isomer, unassigned) [Example I-88]
Post-emergence effect against AVEFA (AVEFA; 80 g/ha): 90%
Post-emergence effect against AVEFA (AVEFA; 320 g/ha): 90%
Post-emergence effect against PHBPU in % (PHBPU): 90%
Post-emergence effect against LOLRI in % (LOLRI; 80 g/ha): 90%
Post-emergence effect against LOLRI in % (LOLRI; 320 g/ha): 90%
Post-emergence effect against VIOTR in % (VIOTR; 80 g/ha): 80%
Post-emergence effect against VIOTR in % (VIOTR; 320 g/ha): 90%
Post-emergence effect against VERPE in % (VERPE): 90%
Post-emergence effect against DIGSA (DIGSA): 80%
Post-emergence effect at 20 g/ha against ZEAMX in % (ZEAMX; 20 g/ha): 0%
Post-emergence effect at 80 g/ha against ZEAMX in % (ZEAMX; 80 g/ha): 0%
Post-emergence effect at 320 g/ha against ZEAMX in % (ZEAMX; 320 g/ha): 0%
Post-emergence effect at 20 g/ha against TRZAS in % (TRZAS): 20%
Post-emergence effect against SETVI in % (SETVI): 90%
Post-emergence effect against ABUTH (ABUTH): 80%
Post-emergence effect against POLCO in % (POLCO; 20 g/ha): 80%
Post-emergence effect against POLCO in % (POLCO; 80 g/ha): 90%
Post-emergence effect against POLCO in % (POLCO; 320 g/ha): 90%
Post-emergence effect against ALOMY (ALOMY; 80 g/ha): 90%
Post-emergence effect against ALOMY (ALOMY; 320 g/ha): 90%
Post-emergence effect against AMARE (AMARE; 320 g/ha): 80%
Post-emergence effect against KCHSC in % (KCHSC; 80 g/ha): 80%
Post-emergence effect against KCHSC in % (KCHSC; 320 g/ha): 80%
Post-emergence effect against ECHCG (ECHCG; 20 g/ha, visual rating about 3 weeks after treatment): 80%
Post-emergence effect against ECHCG in % (ECHCG; 80 g/ha): 90%
Post-emergence effect against ECHCG in % (ECHCG; 320 g/ha): 90%

COC(Oc1nn(-c2cnccn2)c(-c2ccc(F)nc2)c1Cl)C(=O)O (stereo not shown) [Example I-42, {[4-Chloro-5-(6-fluoropyridin-3-yl)-1-(pyrazin-2-yl)-1H-pyrazol-3-yl]oxy}(methoxy)acetic acid]
pest or weed control at 320 g/ha (PHBPU): 80%
pest or weed control at 320 g/ha (LOLRI; 320 g/ha): 90%
pest or weed control at 320 g/ha (VIOTR; [1]): 90%
pest or weed control at 320 g/ha (VERPE): 80%
pest or weed control at 320 g/ha (DIGSA): 90%
plant injury at 20 g/ha (ZEAMX; Zea mays, 504 h, 20 g/ha): 0%
plant injury at 80 g/ha (ZEAMX; Zea mays, 504 h, 80 g/ha): 0%
plant injury at 320 g/ha (ZEAMX; Zea mays, 504 h, 320 g/ha, read-out: Post-emergence effect at 320 g/ha against ZEAMX in %): 20%
percent crop injury (phytotoxicity) to wheat, post-emergence at 20 g/ha (TRZAS): 0%
pest or weed control at 320 g/ha (SETVI): 80%
pest or weed control at 320 g/ha (ABUTH): 80%
pest or weed control at 320 g/ha (POLCO; 320 g/ha): 80%
pest or weed control at 320 g/ha (ALOMY; 320 g/ha): 90%
pest or weed control at 320 g/ha (AMARE; [2]): 80%
pest or weed control at 320 g/ha (KCHSC; [3]): 90%
pest or weed control at 320 g/ha (ECHCG; [4]): 90%

CCOC(=O)C(OC)Oc1nn(-c2cnccn2)c(-c2ccc(F)nc2)c1Cl (stereo not shown) [Example I-46]
pest or weed control at 320 g/ha (PHBPU): 90%
pest or weed control at 320 g/ha (LOLRI; 320 g/ha): 90%
pest or weed control at 80 g/ha (VIOTR; Viola tricolor, 504 h, 80 g/ha, read-out: Post-emergence effect against VIOTR in %): 90%
pest or weed control at 320 g/ha (VIOTR; [1]): 90%
pest or weed control at 320 g/ha (VERPE): 90%
pest or weed control at 320 g/ha (DIGSA): 80%
plant injury at 20 g/ha (ZEAMX; Zea mays, 504 h, 20 g/ha): 0%
plant injury at 80 g/ha (ZEAMX; Zea mays, 504 h, 80 g/ha): 20%
percent crop injury (phytotoxicity) to wheat, post-emergence at 20 g/ha (TRZAS): 0%
pest or weed control at 320 g/ha (SETVI): 90%
pest or weed control at 320 g/ha (ABUTH): 80%
pest or weed control at 320 g/ha (POLCO; 320 g/ha): 80%
pest or weed control at 320 g/ha (ALOMY; 320 g/ha): 90%
pest or weed control at 80 g/ha (AMARE; Amaranthus retroflexus, 504 h, 80 g/ha, read-out: Post-emergence effect against AMARE): 80%
pest or weed control at 320 g/ha (AMARE; [2]): 80%
pest or weed control at 80 g/ha (KCHSC; 504 h, 80 g/ha, read-out: Post-emergence effect against KCHSC in %): 80%
pest or weed control at 320 g/ha (KCHSC; [3]): 90%
pest or weed control at 80 g/ha (ECHCG; Echinochloa crus-galli, 504 h, 80 g/ha, read-out: Post-emergence effect against ECHCG in %): 80%
pest or weed control at 320 g/ha (ECHCG; [4]): 90%
